Laboratory results as given in patent US10934298B2, “Substituted pyrazolo[1,5-a]pyrimidines for the treatment of medical disorders” (BIAL—BioTech Investments, Inc., priority 2016, dated 2021).

Biological target: T1, glucocerebrosidase (Gcase) (Homo sapiens, UniProt P04062)
T1 construct: micellar solution containing 10 nM GCase and 100 nM saposin C
T1 sequence (P04062 40-536): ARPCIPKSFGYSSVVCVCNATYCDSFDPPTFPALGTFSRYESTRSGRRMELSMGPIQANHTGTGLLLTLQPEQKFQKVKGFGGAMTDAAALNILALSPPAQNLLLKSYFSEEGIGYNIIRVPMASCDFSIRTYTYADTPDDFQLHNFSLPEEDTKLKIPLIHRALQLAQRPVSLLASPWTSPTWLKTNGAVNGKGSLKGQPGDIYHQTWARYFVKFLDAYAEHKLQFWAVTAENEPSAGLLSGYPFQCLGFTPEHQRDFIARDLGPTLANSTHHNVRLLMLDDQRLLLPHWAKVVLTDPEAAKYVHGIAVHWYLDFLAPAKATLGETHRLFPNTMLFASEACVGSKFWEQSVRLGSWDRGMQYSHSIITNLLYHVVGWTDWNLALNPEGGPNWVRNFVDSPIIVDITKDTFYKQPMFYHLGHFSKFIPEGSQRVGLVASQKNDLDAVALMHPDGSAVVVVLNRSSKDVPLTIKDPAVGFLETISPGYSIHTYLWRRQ
Test: Glucocerebrosidase (Gcase) activation assay with 4-methylumbelliferyl-beta-D-glucopyranoside substrate, saposin C and phosphatidylserine/triton micelles, fluorescence readout
Type: biochemical
Conditions: for Percent Gcase Activation, 0.1 μM Test Compound: test compound at 0.1 μM; for Percent Gcase Activation, 1 μM Test Compound: test compound at 1.0 μM
Outline: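 10 nM GCase with 100 nM saposin C pre-incubated 30 min with compound in pH 4.7 phosphate/citrate PS/triton micelles, then mixed 1:1 with 2 mM 4-methylumbelliferyl-β-glucoside micellar substrate (stock level). Run 15 min at room temperature, stopped at pH 12.5; fluorescence 365/440 nm. Screened at 1.0 and 0.1 μM; 8-point curves from 5 μM.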

Percent Gcase Activation, 0.1 μM Test Compound | Percent Gcase Activation, 1 μM Test Compound | Compound
* (less than 10% Gcase activation) | + (less than 30% Gcase activation) | COc1c(C#N)cccc1-c1cc(C)n2ncc(C(=O)NC(C)C(F)(F)F)c2n1 (centres unmarked) [III-142]
* (less than 10% Gcase activation) | + (less than 30% Gcase activation) | COc1c(C#N)cccc1-c1cc(C)n2ncc(C(=O)N[C@@H](C)C3CC3)c2n1 [III-143]
* (less than 10% Gcase activation) | + (less than 30% Gcase activation) | COc1c(C#N)cccc1-c1cc(C)n2ncc(C(=O)N[C@H](C)C3CC3)c2n1 [III-144]
*** (greater than 20% Gcase activation) | +++ (Gcase activation greater than 60%) | COc1cc(-c2cc(C)n3ncc(C(=O)N[C@@H](C)C4CC4)c3n2)ccc1F [III-145]
*** (greater than 20% Gcase activation) | +++ (Gcase activation greater than 60%) | COc1cc(F)ccc1-c1cc(C)n2ncc(C(=O)N[C@@H](C)C3CC3)c2n1 [III-146]
*** (greater than 20% Gcase activation) | +++ (Gcase activation greater than 60%) | COc1cc(-c2cc(C)n3ncc(C(=O)NC(C4CC4)C(F)(F)F)c3n2)ccc1F (centres unmarked) [III-147]
*** (greater than 20% Gcase activation) | +++ (Gcase activation greater than 60%) | COc1cc(F)ccc1-c1cc(C)n2ncc(C(=O)NC(C3CC3)C(F)(F)F)c2n1 (centres unmarked) [III-149]
*** (greater than 20% Gcase activation) | +++ (Gcase activation greater than 60%) | COc1cc(F)ccc1-c1cc(C)n2ncc(C(=O)NC(C)C(F)(F)F)c2n1 (centres unmarked) [III-150]
*** (greater than 20% Gcase activation) | +++ (Gcase activation greater than 60%) | Cc1cc(-c2ccc(F)cc2C#N)nc2c(C(=O)NC(C3CC3)C(F)(F)F)cnn12 (centres unmarked) [III-151]
*** (greater than 20% Gcase activation) | +++ (Gcase activation greater than 60%) | Cc1cc(-c2ccc(F)cc2C#N)nc2c(C(=O)N[C@@H](C)C3CC3)cnn12 [III-152]
*** (greater than 20% Gcase activation) | +++ (Gcase activation greater than 60%) | Cc1cc(-c2ccc(F)cc2C#N)nc2c(C(=O)NC(C)C(F)(F)F)cnn12 (centres unmarked) [III-154]
*** (greater than 20% Gcase activation) | +++ (Gcase activation greater than 60%) | Cc1cc(-c2ccc(F)cc2C#N)nc2c(C(=O)N[C@@H](C)C(F)(F)F)cnn12 [III-156]
*** (greater than 20% Gcase activation) | +++ (Gcase activation greater than 60%) | Cc1cc(-c2ccc(F)c(C#N)c2)nc2c(C(=O)N[C@@H](C)C3CC3)cnn12 [III-157]
*** (greater than 20% Gcase activation) | +++ (Gcase activation greater than 60%) | Cc1cc(-c2ccc(F)c(C#N)c2)nc2c(C(=O)NC(C3CC3)C(F)(F)F)cnn12 (centres unmarked) [III-158]
* (less than 10% Gcase activation) | +++ (Gcase activation greater than 60%) | Cc1cc(-c2cccc(C(N)=O)n2)nc2c(C(=O)NC(C3CC3)C(F)(F)F)cnn12 (centres unmarked) [III-161]
*** (greater than 20% Gcase activation) | +++ (Gcase activation greater than 60%) | Cc1cc(-c2ccc(F)c(C(N)=O)c2)nc2c(C(=O)NC(C3CC3)C(F)(F)F)cnn12 (centres unmarked) [III-162]
*** (greater than 20% Gcase activation) | +++ (Gcase activation greater than 60%) | Cc1cc(-c2ccc(F)cc2)nc2c(C(=O)NC(C3CC3)C(F)(F)F)cnn12 (centres unmarked) [III-163]
*** (greater than 20% Gcase activation) | +++ (Gcase activation greater than 60%) | Cc1cc(-c2ccc(F)cc2)nc2c(C(=O)NC(C)C(F)(F)F)cnn12 (centres unmarked) [III-164]
*** (greater than 20% Gcase activation) | +++ (Gcase activation greater than 60%) | Cc1cc(-c2ccc3ocnc3c2)nc2c(C(=O)N[C@H](C)C(F)(F)F)cnn12 [III-167]
*** (greater than 20% Gcase activation) | +++ (Gcase activation greater than 60%) | Cc1cc(-c2ccc3ocnc3c2)nc2c(C(=O)N[C@@H](C)C(F)(F)F)cnn12 [III-168]
*** (greater than 20% Gcase activation) | +++ (Gcase activation greater than 60%) | Cc1cc(-c2ccc3ocnc3c2)nc2c(C(=O)NC(C)C(F)(F)F)cnn12 (centres unmarked) [III-169]
*** (greater than 20% Gcase activation) | +++ (Gcase activation greater than 60%) | Cc1cc(-n2ccc(F)n2)nc2c(C(=O)NC(C3CC3)C(F)(F)F)cnn12 (centres unmarked) [III-172]
*** (greater than 20% Gcase activation) | +++ (Gcase activation greater than 60%) | Cc1cc(-n2ccc(F)n2)nc2c(C(=O)N[C@H](C3CC3)C(F)(F)F)cnn12 [III-173]
*** (greater than 20% Gcase activation) | +++ (Gcase activation greater than 60%) | Cc1cc(-n2ccc(F)n2)nc2c(C(=O)N[C@@H](C3CC3)C(F)(F)F)cnn12 [III-174]
* (less than 10% Gcase activation) | + (less than 30% Gcase activation) | Cc1cc(-c2cccc(-c3ncccn3)n2)nc2c(C(=O)NC(C3CC3)C(F)(F)F)cnn12 (centres unmarked) [III-175]
*** (greater than 20% Gcase activation) | +++ (Gcase activation greater than 60%) | Cc1cc(-c2cccc(-c3ncon3)c2)nc2c(C(=O)NC(C3CC3)C(F)(F)F)cnn12 (centres unmarked) [III-176]
*** (greater than 20% Gcase activation) | +++ (Gcase activation greater than 60%) | Cc1cc(-c2cccc(-c3ncncn3)c2)nc2c(C(=O)NC(C3CC3)C(F)(F)F)cnn12 (centres unmarked) [III-177]
*** (greater than 20% Gcase activation) | +++ (Gcase activation greater than 60%) | Cc1cc(N2CCCC(F)(F)C2)nc2c(C(=O)NC(C)C(F)(F)F)cnn12 (centres unmarked) [III-179]

Compound | Percent Gcase Activation, 0.1 μM Test Compound | Percent Gcase Activation, 1 μM Test Compound
COc1cc(-c2cc(C)n3ncc(C(=O)NC(C)C(F)(F)F)c3n2)ccc1F (centres unmarked) [III-148] | ** (Gcase activation in the range of 10% up to 20%) | +++ (Gcase activation greater than 60%)
Cc1cc(-c2ccc(F)cc2C#N)nc2c(C(=O)N[C@H](C)C3CC3)cnn12 [III-153] | ** (Gcase activation in the range of 10% up to 20%) | +++ (Gcase activation greater than 60%)
Cc1cc(-c2ccc(F)cc2C#N)nc2c(C(=O)N[C@H](C)C(F)(F)F)cnn12 [III-155] | * (less than 10% Gcase activation) | ++ (Gcase activation in the range of 30% up to 60%)
Cc1cc(-c2ccc(F)c(C#N)c2)nc2c(C(=O)NC(C)C(F)(F)F)cnn12 (centres unmarked) [III-159] | ** (Gcase activation in the range of 10% up to 20%) | +++ (Gcase activation greater than 60%)
Cc1cc(-c2ccc(F)c(C(N)=O)c2)nc2c(C(=O)N[C@@H](C)C3CC3)cnn12 [III-160] | ** (Gcase activation in the range of 10% up to 20%) | +++ (Gcase activation greater than 60%)
Cc1cc(NC2CC2)nc2c(C(=O)NC(C)C(F)(F)F)cnn12 (centres unmarked) [III-165] | ** (Gcase activation in the range of 10% up to 20%) | +++ (Gcase activation greater than 60%)
Cc1cc(NC2CC2)nc2c(C(=O)N[C@@H](C)C3CC3)cnn12 [III-166] | ** (Gcase activation in the range of 10% up to 20%) | +++ (Gcase activation greater than 60%)
Cc1cc(-n2ccc(Cl)n2)nc2c(C(=O)NC(C)C(F)(F)F)cnn12 (centres unmarked) [III-170] | ** (Gcase activation in the range of 10% up to 20%) | ++ (Gcase activation in the range of 30% up to 60%)
Cc1cc(-c2ccns2)nc2c(C(=O)NC(C)C(F)(F)F)cnn12 (centres unmarked) [III-178] | ** (Gcase activation in the range of 10% up to 20%) | +++ (Gcase activation greater than 60%)
